# Experimental data as given in ChEMBL document CHEMBL1132702, “5'-N-substituted carboxamidoadenosines as agonists for adenosine receptors” (J Med Chem, 1999).
# Experiments:
# Adenosine receptor A2b = biological target: T1, Adenosine receptor A2b (Homo sapiens, UniProt P29275); assay: Effective concentration for cAMP production in CHO-KI cells stably transfected with human adenosine A2B receptor cDNA
# T1 sequence (P29275 whole entry): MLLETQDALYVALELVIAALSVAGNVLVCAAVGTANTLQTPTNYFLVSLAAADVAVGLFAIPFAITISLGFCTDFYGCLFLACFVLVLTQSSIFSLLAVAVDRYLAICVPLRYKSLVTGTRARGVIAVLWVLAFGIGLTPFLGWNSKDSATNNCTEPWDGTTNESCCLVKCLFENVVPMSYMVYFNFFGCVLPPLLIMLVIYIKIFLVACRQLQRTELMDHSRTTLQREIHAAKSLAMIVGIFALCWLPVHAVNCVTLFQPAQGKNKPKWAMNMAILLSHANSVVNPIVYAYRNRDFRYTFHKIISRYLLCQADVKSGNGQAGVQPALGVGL
# Adenosine receptor A1 [1] = biological target: T2, Adenosine receptor A1 (Rattus norvegicus, UniProt P25099); assay: Ability to displace radioligand [3H]- DPCPX from adenosine A1 receptor on rat cortical membrane in the presence of 1 mM of GTP
# T2 sequence (P25099 whole entry): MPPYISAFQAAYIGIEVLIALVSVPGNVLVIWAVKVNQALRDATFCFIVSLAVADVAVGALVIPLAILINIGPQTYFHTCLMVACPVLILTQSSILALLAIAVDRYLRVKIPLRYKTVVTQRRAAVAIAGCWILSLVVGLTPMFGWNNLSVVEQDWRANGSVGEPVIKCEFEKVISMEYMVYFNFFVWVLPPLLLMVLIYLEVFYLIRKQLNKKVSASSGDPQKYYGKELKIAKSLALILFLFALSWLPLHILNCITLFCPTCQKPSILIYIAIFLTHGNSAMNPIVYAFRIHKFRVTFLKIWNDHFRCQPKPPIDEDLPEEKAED
# Adenosine receptor A3 = biological target: T3, Adenosine receptor A3 (Homo sapiens, UniProt P0DMS8); assay: Ability to displace radioligand [125I]AB-MECA from membrane of HEK 293 cells stably transfected with human adenosine A3 receptor cDNA; format: cell membranes, HEK293
# T3 sequence (P0DMS8 whole entry): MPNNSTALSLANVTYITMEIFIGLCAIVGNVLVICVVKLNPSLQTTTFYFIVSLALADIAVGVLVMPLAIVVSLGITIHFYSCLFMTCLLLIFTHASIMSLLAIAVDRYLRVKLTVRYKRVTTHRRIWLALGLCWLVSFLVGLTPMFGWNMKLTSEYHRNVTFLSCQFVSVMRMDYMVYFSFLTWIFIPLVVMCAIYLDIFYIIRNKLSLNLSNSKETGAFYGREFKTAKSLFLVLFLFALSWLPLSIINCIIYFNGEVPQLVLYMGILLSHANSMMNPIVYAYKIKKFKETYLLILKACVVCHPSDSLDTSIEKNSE
# [2] = GTP shift was determined
# Adenosine receptor A1 [3] = biological target: T2, Adenosine receptor A1
# Description: Ability to displace radioligand [3H]- DPCPX from adenosine A1 receptor on rat cortical membrane in the absence of GTP
# Adenosine receptor A2a = Adenosine receptor A2a (Rattus norvegicus, UniProt P30543)
# [4] = biological target: T4, Adenosine receptor A2b (Homo sapiens) (UniProt P29275); assay: Effective concentration for cAMP production in CHO-KI cells expressing human adenosine A2B receptor at 100 uM; format: functional, cell-based
# T4 sequence (whole entry): T1 sequence (P29275 whole entry)
# Sequence of Adenosine receptor A2a (P30543 whole entry): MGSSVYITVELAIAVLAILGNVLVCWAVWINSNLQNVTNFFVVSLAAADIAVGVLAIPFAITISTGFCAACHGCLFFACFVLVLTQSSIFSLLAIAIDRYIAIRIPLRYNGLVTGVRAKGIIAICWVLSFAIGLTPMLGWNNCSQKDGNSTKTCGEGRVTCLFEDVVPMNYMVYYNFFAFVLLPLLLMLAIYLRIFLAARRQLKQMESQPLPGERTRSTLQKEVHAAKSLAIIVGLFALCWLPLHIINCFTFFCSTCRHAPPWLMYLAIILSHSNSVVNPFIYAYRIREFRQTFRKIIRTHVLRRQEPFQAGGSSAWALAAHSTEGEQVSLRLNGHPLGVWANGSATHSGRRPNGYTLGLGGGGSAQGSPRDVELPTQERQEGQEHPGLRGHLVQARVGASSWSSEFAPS
Compound,EC50 (Adenosine receptor A2b),Ki (Adenosine receptor A1 [1]),Ki (Adenosine receptor A3),GTP shift [2],Ki (Adenosine receptor A1 [3]),Ki (Adenosine receptor A2a),Emax [4]
CC(C)(C)NC(=O)[C@H]1O[C@@H](n2cnc3c(N)ncnc32)[C@H](O)[C@@H]1O,,6950 nM,8500 nM,2.6,2730 nM,1340 nM,10%
Nc1ncnc2c1ncn2[C@@H]1O[C@H](C(=O)NCCCl)[C@@H](O)[C@H]1O,32000 nM,890 nM,322 nM,3.6,248 nM,410 nM,
CNC(=O)[C@H]1O[C@@H](n2cnc3c(NCc4cccc(I)c4)ncnc32)[C@H](O)[C@@H]1O [IB-MECA],11000 nM,,,,,,
Nc1ncnc2c1ncn2[C@@H]1O[C@H](C(=O)NC2CCCC2)[C@@H](O)[C@H]1O,54000 nM,4900 nM,32 nM,6.4,770 nM,610 nM,
Nc1ncnc2c1ncn2[C@@H]1O[C@H](C(=O)NC2CC2)[C@@H](O)[C@H]1O,5300 nM,,108 nM,,,,

# Continued, values first:
EC50 (Adenosine receptor A2b),Ki (Adenosine receptor A1 [1]),Ki (Adenosine receptor A3),GTP shift [2],Ki (Adenosine receptor A1 [3]),Ki (Adenosine receptor A2a),Emax [4],Compound
45000 nM,1960 nM,85.3 nM,2.4,1620 nM,623 nM,,CONC(=O)[C@H]1O[C@@H](n2cnc3c(N)ncnc32)[C@H](O)[C@@H]1O
37000 nM,804 nM,211 nM,3.1,257 nM,160 nM,,CC(C)NC(=O)[C@H]1OC(n2cnc3c(N)ncnc32)[C@H](O)[C@@H]1O (some centres not stated)
33000 nM,,23 nM,,,49 nM,,Nc1ncnc2c1ncn2[C@@H]1O[C@H](C(=O)NC2CCC2)[C@@H](O)[C@H]1O
13000 nM,459 nM,2280 nM,3.4,137 nM,130 nM,,Nc1ncnc2c1ncn2[C@@H]1O[C@H](C(=S)NC2CC2)[C@@H](O)[C@H]1O
45000 nM,6840 nM,6.4 nM,,1080 nM,,,CNC(=O)[C@H]1O[C@@H](n2cnc3c(N)ncnc32)[C@H](O)[C@@H]1O
16000 nM,478 nM,569 nM,3.4,141 nM,130 nM,,CCNC(=S)[C@H]1O[C@@H](n2cnc3c(N)ncnc32)[C@H](O)[C@@H]1O
